“And” between values parts separate entries of the source, which are not always exact repeats. Equal entries are not always repeated.
Columns and labels:
C57BL/6J mice = experiment: DSS-induced colitis mouse model, ileum histology; assay type: in vivo; conditions: for COLITIS SCORING mean ± SEM: group mean, n = 9, 3% DSS; for COLITIS SCORING mean ± SEM / COLITIS SCORING (sum) / Depletion of goblet cells score / Edema score / Erosion (epithelial cell damage) score / Leucocytes Infiltration score: Day 7; for COLITIS SCORING (sum) / Depletion of goblet cells score / Edema score / Erosion (epithelial cell damage) score / Leucocytes Infiltration score: ileum histology, individual mouse, 3% DSS
Description: The objective of this study was to determine the prophylactic efficacy of MRX029 in a DSS-induced colitis mouse model, upon repeated oral administration.
Tacrolimus was dosed at 1 mg/kg/day
Valproic acid was dosed at 200 mg/kg/day
PBS, YCFA and bacterial cultures were dosed at 200 μL/day
PBS, YCFA and live bacteria were be daily administered per os (PO) under a fixed volume of 200 μL/mouse
Tacrolimus will be daily administered subcutaneously (SC) under a volume of 10 mL/kg Valproic acid will be daily administered per os (PO) under a volume of 10 mL/kg
Each of sixty three, 6 week old healthy male C57BL/6J mice were obtained from Charles River (France) and individually identified and labelled with a specific code. Each treatment group (9 animals/group) were housed in three different cages.
Animals were dosed by extracting the dosing aliquot from the Hungate tube using a syringe and a 0.8×40 mm needle injected through the septum. The Hungate tube was mixed by inversion before the dosing aliquot was extracted. The first 50-100 μL through the gavage needle and each mouse was dose with 200 μL of culture by oral gavage
Days −7 to Day −1: Treatment with bacteria and reference substances according the treatment table above • Once daily oral administration of PBS, YCF A or Bacteria—200 μL per mouse • Once daily oral administration of Valproic acid at 200 mg/kg/day under a volume of 10 mL/kg
From Day O to Day+7: DSS administration • Administration of 3% DSS in the drinking water
From Day O to Day+6: Treatment with bacteria and reference substances • Once daily oral administration of PBS, YCFA or Bacteria—200 μL per mouse • Once daily oral administration of Valproic acid-200 mg/kg in sterile distilled water—10 mL/kg • Once daily SC administration of Tacrolimus—1 mg/kg in sterile 1% Tween80, 0.9% NaCl −10 mL/kg
Day +7: Sacrifice of all groups and tissue harvesting • Euthanasia of animals was performed under gas anesthesia (lsoflurane) followed by exsanguination and cervical dislocation. Euthanasia methods used are those recommended for mice and rats by European directive 20 I 0/63/CE and the procedure describing euthanasia methods was approved by IACUC. • Laparotomy and ileum harvesting, just upstream of the caecum (from 0.5 cm and on)—all tissue harvested from exactly the same area between all mice: • 1.5 cm swiss-rolled ileum was harvested for histology, the closest to the caecum
Ileum Swiss-rolls specimens were embedded in paraffin and sections of 5 μm thickness were cut and mounted on SuperFrost Ultra plus glass slides. HP (Hematoxylin-Phloxin) staining & AB-PAS (Alcian Blue-Periodic Acid Schiff) staining were performed to visualize histomorphologic changes. A scoring based on edema, erosion, loss of crypts/goblet cells and infiltrates was established on each animal, using the criteria in the following table: […]

histone deacetylase [1] = experiment: Histone deacetylase activity in whole HT-29 cells; assay type: cell-based; conditions: pure substance; for total HDAC activity inhibition: whole cells or lysate not distinguished
Description: The cell line HT-29 was used because histone deacetylase is present.
Cell free supernatants of stationary phase bacterial cultures were isolated by centrifugation and filtering in a 0.22 uM filter. HT-29 cells were used 3 days' post confluence and stepped down in 1 mL DTS 24 hours prior to commencement of the experiment. The HT-29 cells were challenged with 10% cell free supernatant diluted in DTS and was is left to incubate for 48 hours. […] extraction kit and samples were snap frozen prior to HDAC activity measurement. HDAC activity was assessed fluorometrically using the Sigma Aldrich (UK) kit.
(§1) To investigate which metabolites were responsible for the strain-induced HDAC inhibition, different concentrations of hexanoic acid, valeric acid and sodium butyrate were measured for their HDAC inhibition on whole HT-29 cells and on HT-29 cell lysate.

IL-6 = IL-6 secretion by U373 glioblastoma astrocytoma cells (ELISA); assay type: cell-based, human; conditions: for LPS-induced secretion of IL-6 in U373 cells, SCFAs: LPS pre-treatment 1 h, increasing concentrations of pure fatty acid
Description: MG U373 is a human glioblastoma astrocytoma derived from a malignant tumour and were purchased from Sigma-Aldrich (cat n. 08061901-1VL). MG U373 human glioblastoma astrocytoma cells were grown in MEM (Sigma Aldrich, cat n. M-2279) supplemented with 10% FBS, 1% Pen Strep, 4 mM L-Glut, 1×MEM Non essential Amino Acid solution and 1× Sodium Pyruvate.
Once grown the MG U373 cells were plated on 24-well plate at 100,000 cells/well. The cells were treated with LPS (1 ug/mL) alone or with 10% of bacteria supernatant from MRx0029 for 24 h. A control was also performed where the cells were incubated in untreated media. Afterwards the cell free supernatants were collected, centrifuged at 10,000 g for 3 min at 4° C. IL-6 was measured using the Human IL-6 ELISA Kit from Peprotech (cat n.#900-K16) according to manufacturer instructions.
Human glioblastoma astrocytoma cell line (U373), were maintained in 25 ml MEME 4.5 g/L D-glucose supplemented with 10% heat-inactivated FBS, 4 mM L-Glutamine, 100 U/ml penicillin, 100 μg/ml streptomycin and 5 μg/ml plasmocin, 1% Non-Essential Amino Acids, 1% Sodium Pyruvate (referred to as full growth media).
Cells were plated in 24-well plates at a density of 100,000 cells/well in 1 ml of full growth media and left to rest at 37° C./5% CO2 for 72 h. On the day of the treatment, the media was removed from each well, cells were rinsed with 0.5 ml wash media (serum free MEME), 0.9 ml stimulation media (MEME media containing 2% FBS) containing 1 μg/ml LPS was added to the appropriate wells and incubated at 37° C. and 5% CO2. After 1 h pre-incubation, cells were removed from CO2 incubator and treated with 100 μl bacteria supernatant. YCFA+ media was used as control. […]
Secretion of IL-6 was analysed using hIL-6 Standard ELISA Kits, according to the manufacturer's protocol in the cell-free supernatants from U373 cells treated as described above. Samples were measured at 405 nm with correction wavelength set at 655 nm on a microplate reader (iMark, Bio-Rad). Raw data were plotted and analysed using GraphPad Prism 7 software. […]

histone deacetylase [2] = experiment: HDAC inhibition on HT-29 cell lysate; assay type: biochemical; conditions: pure substance, different concentrations
Description: as §1

| Structure (SMILES) | COLITIS SCORING mean ± SEM (C57BL/6J mice) | COLITIS SCORING (sum) (C57BL/6J mice) | Depletion of goblet cells score (C57BL/6J mice) | Edema score (C57BL/6J mice) | Erosion (epithelial cell damage) score (C57BL/6J mice) | Leucocytes Infiltration score (C57BL/6J mice) | total HDAC activity inhibition (histone deacetylase [1]) | LPS-induced secretion of IL-6 in U373 cells, SCFAs (IL-6) | also measured |
| --- | --- | --- | --- | --- | --- | --- | --- | --- | --- |
| C=CC[C@@H]1/C=C(\C)C[C@H](C)C[C@H](OC)[C@H]2O[C@@](O)(C(=O)C(=O)N3CCCC[C@H]3C(=O)O[C@H](/C(C)=C/[C@@H]3CC[C@@H](O)[C@H](OC)C3)[C@H](C)[C@@H](O)CC1=O)[C@H](C)C[C@@H]2OC [Tacrolimus] | 0.44 | 0 (6×) and 2 and 1 (2×) | 0 | 0 | 0 | 0 (6×) and 2 and 1 (2×) |  |  | leukocyte infiltration in the ileum, group result (C57BL/6J mice; DSS animals versus vehicle DSS groups): reduced leukocyte infiltration comparable to controls |
| CCCCC(=O)O [valeric acid] |  |  |  |  |  |  | significant HDAC inhibition |  | total HDAC activity inhibition (histone deacetylase [1]; listed as Valeric acid): inhibited total HDAC activity |
| CCCCCC(=O)O [hexanoic acid] |  |  |  |  |  |  | did show significant inhibitory activity | did not inhibit IL-6 secretion |  |
| CCCC(CCC)C(=O)O [Valproic acid, Valproic Acid] | 0.67 | 2 (2×) and 1 (2×) and 0 (5×) | 0 | 0 | 0 | 2 (2×) and 1 (2×) and 0 (5×) |  |  |  |
| CCCC(=O)[O-].[Na+] [sodium butyrate] |  |  |  |  |  |  | significant HDAC inhibition | inhibited LPS-induced secretion of IL-6 in U373 cells in a concentration-dependent manner | HDAC inhibition on whole HT-29 cells (histone deacetylase [1]; different concentrations): significant (P<0.05) inhibition of HDAC activity; HDAC inhibition on HT-29 cell lysate (histone deacetylase [2]): significant (P<0.05) inhibition of HDAC activity; basal IL-6 secretion in U373 cells (IL-6; absence of LPS): decreased the basal level of IL-6 |
